In paper PMC3305890, “Synthesis and pharmacological characterization of potent, selective, and orally bioavailable isoindoline class dipeptidyl peptidase IV inhibitors” (Organic and Medicinal Chemistry Letters, 2011):

Columns and labels:
CYP1A = CYP1A enzyme induction in rat hepatocytes (7-ethoxyresorufin O-dealkylation); assay type: in vitro ADME; conditions: rat hepatocytes, 1, 10, 50 μM, 2 days
Procedure: (§1) Enzyme induction was evaluated as follows: Hepatocytes isolated from male SD rats were maintained in culture for 1 day before treatment with the test compound or P-450 inducers. The cells were treated with the test compound (1, 10, 50 μM), β-naphthoflavone (10 μM, CYP1A inducer), phenobarbital (50 μM, CYP2B inducer), dexamethasone (10 μM, CYP3A inducer), or vehicle (0.1% DMSO final volume; used as negative control) for 2 days.
(§2) Induction of CYP1A, CYP2B, and CYP3A enzymes was determined based on measurements of 7-ethoxyresorufin O-dealkylation, 7-pentoxyresorufin O-dealkylation, and testosterone 6β-hydroxylation, respectively. Assays were started by the addition of Krebs-Henseleit buffer containing 8 μM 7-ethoxyresorufin, 10 μM 7-pentoxyresorufin, or 250 μM testosterone at a volume of 100 μL per well. After incubation at 37°C for 30 min, aliquots were removed and analyzed by fluorometry (an excitation wavelength of 538 nm and an emission wavelength of 590 nm) or LC/MS/MS to determine the quantities of metabolites formed. Any test compound causing a dose-dependent change equal to or greater than 10% of the positive control (see formula below) was considered an enzyme inducer.
(§3) % positive control=(activity of test - compound treated cells - activity of negative control)/(activity of positive control - activity of negative control)×100

CYP2B = CYP2B enzyme induction in rat hepatocytes (7-pentoxyresorufin O-dealkylation); assay type: in vitro ADME; conditions: rat hepatocytes, 1, 10, 50 μM, 2 days
Procedure: as §1, §2, §3

[1] = Metabolic stability in human liver microsomes; assay type: in vitro ADME; conditions: read-out: CL'int Human (converted)
Procedure: (§4) The incubation mixture containing 0.25 mg of rat or human liver microsomes was preincubated with an NADPH-generating system for 5 min at 37°C. The reaction was started by the addition of 5 μL of a DMSO solution containing the test compound (5 μM). At t = 0 and at two additional time points between 0 and 30 min, aliquots (100 μL) were removed and added to termination mixtures (CH3CN). Proteins were sedimented by centrifugation and an aliquot of the supernatant was analyzed by LC/MS/MS.
(§5) In determinations of the in vitrot1/2, the analyte/ISTD peak area ratio was converted to percentage of drug remaining by assigning a value of 100% to the peak area ratio at t = 0. The slope of the regression line fitted to the log (percentage remaining) versus incubation time relationship (-k) was used in the conversion of raw data to the in vitrot1/2 value. In vitro CLint was calculated using the following formula.
(§6) CLint=0.693/Invitro t1/2×mL incubation/mg microsomes×45 mg microsomes/mg liver×[…] (b.w.)

CYP3A = CYP3A enzyme induction in rat hepatocytes (testosterone 6β-hydroxylation); assay type: in vitro ADME; conditions: rat hepatocytes, 1, 10, 50 μM, 2 days
Procedure: as §1, §2, §3

Human DPP-9 = Human DPP-9 (Homo sapiens, UniProt Q86TI2); assay: In vitro assay for inhibition of DPP-9
Chain of Human DPP-9 (Q86TI2 whole entry): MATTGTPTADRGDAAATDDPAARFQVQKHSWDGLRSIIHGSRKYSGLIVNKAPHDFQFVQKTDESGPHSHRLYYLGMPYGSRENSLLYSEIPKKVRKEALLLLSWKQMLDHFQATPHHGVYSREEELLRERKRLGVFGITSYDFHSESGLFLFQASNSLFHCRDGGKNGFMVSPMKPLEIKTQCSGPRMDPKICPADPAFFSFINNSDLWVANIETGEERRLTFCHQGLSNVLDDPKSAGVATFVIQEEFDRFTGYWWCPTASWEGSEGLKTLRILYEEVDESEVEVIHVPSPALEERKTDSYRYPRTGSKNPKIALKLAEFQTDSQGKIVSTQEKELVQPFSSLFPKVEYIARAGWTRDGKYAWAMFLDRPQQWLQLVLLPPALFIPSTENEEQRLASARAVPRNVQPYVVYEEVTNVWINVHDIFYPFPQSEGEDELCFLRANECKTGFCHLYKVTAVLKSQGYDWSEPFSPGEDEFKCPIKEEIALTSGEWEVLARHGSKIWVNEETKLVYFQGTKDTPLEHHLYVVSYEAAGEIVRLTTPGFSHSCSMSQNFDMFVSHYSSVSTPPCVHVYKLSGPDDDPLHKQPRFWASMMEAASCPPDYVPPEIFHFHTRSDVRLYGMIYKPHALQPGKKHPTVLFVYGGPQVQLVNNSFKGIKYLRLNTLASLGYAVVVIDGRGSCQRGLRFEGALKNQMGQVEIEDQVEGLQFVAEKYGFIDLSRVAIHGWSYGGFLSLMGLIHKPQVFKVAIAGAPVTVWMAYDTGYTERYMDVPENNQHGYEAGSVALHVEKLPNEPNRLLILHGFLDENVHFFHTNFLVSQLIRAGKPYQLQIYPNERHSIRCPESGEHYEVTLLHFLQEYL
Procedure: (§7) Thus, isoindolines were synthesized as shown in Figure 1 and evaluated in vitro for their ability to inhibit human recombinant DPP-IV and were also screened for their selectivity over DPP-8/9 by a fluorescence assay using glycyl-proline 7-amino-4-methylcoumarin (H-Gly-Pro-AMC).
(§8) Human DPP-8 and DPP-9 were expressed in baculovirus-infected Sf9 insect cells and purified using His-tagged protein purification resins. Inhibition of DPP-8 and -9 activities was determined as described above. 10 μL of appropriately diluted aqueous solutions of the test compounds was added to 96-well microtiter plates, followed by the addition of 50 μL of 1.0 mM H-Gly-Pro-AMC in buffer solution (50 mM HEPES, 0.1 mg/mL BSA, pH 8.0). The reaction was initiated by the addition of 40 μL of the enzyme solution diluted in the assay buffer.

[2] = Metabolic stability in rat liver microsomes; assay type: in vitro ADME; conditions: 5 μM
Procedure: as §4, §5, §6

Human DPP-8 = Human DPP-8 (Homo sapiens, UniProt Q6V1X1); assay: In vitro assay for inhibition of DPP-8
Chain of Human DPP-8 (Q6V1X1 whole entry): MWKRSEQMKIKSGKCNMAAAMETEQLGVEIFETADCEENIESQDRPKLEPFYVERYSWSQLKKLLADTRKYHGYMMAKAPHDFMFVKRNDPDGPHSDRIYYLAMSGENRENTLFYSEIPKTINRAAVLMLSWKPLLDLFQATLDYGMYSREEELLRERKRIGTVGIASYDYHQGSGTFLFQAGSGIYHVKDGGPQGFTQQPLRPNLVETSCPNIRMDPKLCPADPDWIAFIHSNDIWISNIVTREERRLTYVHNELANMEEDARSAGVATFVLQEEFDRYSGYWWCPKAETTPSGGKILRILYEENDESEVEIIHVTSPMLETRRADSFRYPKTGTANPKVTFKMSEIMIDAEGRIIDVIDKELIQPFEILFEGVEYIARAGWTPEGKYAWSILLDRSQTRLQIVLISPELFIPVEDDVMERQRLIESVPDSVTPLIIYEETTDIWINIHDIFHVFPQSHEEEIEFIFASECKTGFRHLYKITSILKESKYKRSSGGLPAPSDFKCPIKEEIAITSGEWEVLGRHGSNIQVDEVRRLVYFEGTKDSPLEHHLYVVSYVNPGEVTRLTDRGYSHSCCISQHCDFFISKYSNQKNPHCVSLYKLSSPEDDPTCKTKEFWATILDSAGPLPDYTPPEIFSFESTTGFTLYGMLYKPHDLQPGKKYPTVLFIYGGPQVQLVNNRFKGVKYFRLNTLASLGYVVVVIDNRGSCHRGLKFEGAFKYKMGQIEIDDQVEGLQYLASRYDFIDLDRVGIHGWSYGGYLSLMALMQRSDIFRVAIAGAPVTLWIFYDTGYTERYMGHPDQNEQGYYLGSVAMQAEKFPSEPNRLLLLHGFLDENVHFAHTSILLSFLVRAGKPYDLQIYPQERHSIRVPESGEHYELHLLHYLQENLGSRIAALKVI
Procedure: as §7, §8

Human recombinant DPP-IV = Human recombinant DPP-IV (Homo sapiens, UniProt P27487); assay: In vitro assay for DPP-IV inhibition (H-Gly-Pro-AMC fluorescence)
Chain of Human recombinant DPP-IV (P27487 whole entry): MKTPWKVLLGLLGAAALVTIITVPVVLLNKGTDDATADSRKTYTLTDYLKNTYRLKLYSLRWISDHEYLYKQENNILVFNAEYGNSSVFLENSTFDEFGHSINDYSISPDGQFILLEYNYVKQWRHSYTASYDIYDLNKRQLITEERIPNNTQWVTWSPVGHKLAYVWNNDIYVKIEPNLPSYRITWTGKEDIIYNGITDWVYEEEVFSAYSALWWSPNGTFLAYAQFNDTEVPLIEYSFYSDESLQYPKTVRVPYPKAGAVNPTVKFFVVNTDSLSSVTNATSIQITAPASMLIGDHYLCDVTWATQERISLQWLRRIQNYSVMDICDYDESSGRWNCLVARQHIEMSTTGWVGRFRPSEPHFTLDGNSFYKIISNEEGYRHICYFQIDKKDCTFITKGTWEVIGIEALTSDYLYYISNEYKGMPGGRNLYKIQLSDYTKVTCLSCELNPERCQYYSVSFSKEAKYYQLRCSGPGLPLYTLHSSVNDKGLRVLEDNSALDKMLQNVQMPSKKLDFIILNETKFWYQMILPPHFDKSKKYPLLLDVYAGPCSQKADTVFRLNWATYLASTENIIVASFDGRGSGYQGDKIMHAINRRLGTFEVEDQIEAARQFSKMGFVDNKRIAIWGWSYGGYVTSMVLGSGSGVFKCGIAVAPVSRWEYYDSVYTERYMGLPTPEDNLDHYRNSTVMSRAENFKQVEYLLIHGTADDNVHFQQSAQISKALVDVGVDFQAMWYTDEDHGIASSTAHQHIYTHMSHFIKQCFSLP
Procedure: Inhibition of DPP-IV activity was determined by measuring the rate of hydrolysis of a surrogate substrate, H-Gly-Pro-7-amino-4-methylcoumarin (H-Gly-Pro-AMC). Human recombinant DPP-IV was purchased from R&D Systems, Minneapolis, MN. 10 μL of appropriately diluted solutions of the test compounds in water was added to 96-well microtiter plates, followed by the addition of 40 μL of DPP-IV diluted in assay buffer (25 mM HEPES, 140 mM NaC1, 0.1 mg/mL BSA, pH 7.8). After a 30-min preincubation at room temperature, the reaction was initiated by the addition of 50 μL of the assay buffer containing 0.2 mM H-Gly-Pro-AMC.

Structure (SMILES)	CLint scaled at 5 μM [1] [mL/min/kg]	IC50 (Human DPP-9) [µM]	CL'int Rat [2] [mL/min/kg]	IC50 (Human DPP-8) [µM]	IC50 (Human recombinant DPP-IV) [µM]	Enzyme induction (rat) CYP1A (CYP1A)	Enzyme induction (rat) CYP2B (CYP2B)	Enzyme induction (rat) CYP3A (CYP3A)
CC(C)(CC(=O)N1Cc2ccccc2C1)NCC(=O)N1CCC[C@H]1C#N [Compound 4a, (S)-1-(2-(4-(Isoindolin-2-yl)-2-methyl-4-oxobutan-2-ylamino)acetyl)pyrrolidine-2-carbonitrile]	3.33	> 100	21.7			+ (Any test compound causing a dose-dependent change equal to or greater than 10% of the positive control (see formula below) was considered an enzyme inducer)	+ (Any test compound causing a dose-dependent change equal to or greater than 10% of the positive control (see formula below) was considered an enzyme inducer)	+ (Any test compound causing a dose-dependent change equal to or greater than 10% of the positive control (see formula below) was considered an enzyme inducer)
CC(C)(CC(=O)N1Cc2ccc(Br)cc2C1)NCC(=O)N1CCC[C@H]1C#N [Compound 4d, (S)-1-(2-(4-(5-Bromoisoindolin-2-yl)-2-methyl-4-oxobutan-2-ylamino)acetyl)pyrrolidine-2-carbonitrile]		> 100		36	0.003		+ (Any test compound causing a dose-dependent change equal to or greater than 10% of the positive control (see formula below) was considered an enzyme inducer)	
CC(C)(CC(=O)N1Cc2ccc(Cl)cc2C1)NCC(=O)N1CCC[C@H]1C#N [Compound 4e, (S)-1-(2-(4-(5-Chloroisoindolin-2-yl)-2-methyl-4-oxobutan-2-ylamino)acetyl)pyrrolidine-2-carbonitrile]		> 100		44	0.0048		+ (Any test compound causing a dose-dependent change equal to or greater than 10% of the positive control (see formula below) was considered an enzyme inducer)	
CC(C)(CC(=O)N1Cc2ccc(C(F)(F)F)cc2C1)NCC(=O)N1CCC[C@H]1C#N [Compound 4f, (S)-1-(2-(2-Methyl-4-oxo-4-(5-(trifluoromethyl)isoindolin-2-yl)butan-2-ylamino)acetyl)pyrrolidine-2-carbonitrile]		> 100		> 100	0.0054	+ (Any test compound causing a dose-dependent change equal to or greater than 10% of the positive control (see formula below) was considered an enzyme inducer)	+ (Any test compound causing a dose-dependent change equal to or greater than 10% of the positive control (see formula below) was considered an enzyme inducer)	
CC(C)(CC(=O)N1Cc2c(Cl)ccc(Cl)c2C1)NCC(=O)N1CCC[C@H]1C#N [Compound 4i, (S)-1-(2-(4-(4,7-Dichloroisoindolin-2-yl)-2-methyl-4-oxobutan-2-ylamino)acetyl)pyrrolidine-2-carbonitrile]		> 100		> 100	0.0026	+ (Any test compound causing a dose-dependent change equal to or greater than 10% of the positive control (see formula below) was considered an enzyme inducer)		
CC(C)(CC(=O)N1Cc2cc(Cl)c(Cl)cc2C1)NCC(=O)N1CCC[C@H]1C#N [Compound 4j, (S)-1-(2-(4-(5,6-Dichloroisoindolin-2-yl)-2-methyl-4-oxobutan-2-ylamino)acetyl)pyrrolidine-2-carbonitrile]		74		> 100	0.022	+ (Any test compound causing a dose-dependent change equal to or greater than 10% of the positive control (see formula below) was considered an enzyme inducer)	+ (Any test compound causing a dose-dependent change equal to or greater than 10% of the positive control (see formula below) was considered an enzyme inducer)	
COc1cc(C)cc2c1CN(C(=O)CC(C)(C)NCC(=O)N1CCC[C@H]1C#N)C2 [Compound 4k, (S)-1-(2-(4-(4-Methoxy-6-methylisoindolin-2-yl)-2-methyl-4-oxobutan-2-ylamino)acetyl)pyrrolidine-2-carbonitrile]		> 100		> 100	0.016		+ (Any test compound causing a dose-dependent change equal to or greater than 10% of the positive control (see formula below) was considered an enzyme inducer)	

Now from value to compound, other results behind:

CLint scaled at 5 μM [1] [mL/min/kg]	IC50 (Human DPP-9) [µM]	CL'int Rat [2] [mL/min/kg]	IC50 (Human DPP-8) [µM]	IC50 (Human recombinant DPP-IV) [µM]	Structure (SMILES)	Enzyme induction (rat) CYP1A (CYP1A)	Enzyme induction (rat) CYP2B (CYP2B)	Enzyme induction (rat) CYP3A (CYP3A)
80	> 100	43.3	> 100	0.0019	CC(C)(CC(=O)N1Cc2ccc(F)cc2C1)NCC(=O)N1CCC[C@H]1C#N [Compound 4c, (S)-1-(2-(4-(5-Fluoroisoindolin-2-yl)-2-methyl-4-oxobutan-2-ylamino)acetyl)pyrrolidine-2-carbonitrile]		+ (Any test compound causing a dose-dependent change equal to or greater than 10% of the positive control (see formula below) was considered an enzyme inducer)	
	> 100		> 100	0.0026	CC(C)(CC(=O)N1Cc2cccc(F)c2C1)NCC(=O)N1CCC[C@H]1C#N [Compound 4g, (S)-1-(2-(4-(4-Fluoroisoindolin-2-yl)-2-methyl-4-oxobutan-2-ylamino)acetyl)pyrrolidine-2-carbonitrile]		+ (Any test compound causing a dose-dependent change equal to or greater than 10% of the positive control (see formula below) was considered an enzyme inducer)	
	> 100		> 100	0.004	Cc1cccc2c1CN(C(=O)CC(C)(C)NCC(=O)N1CCC[C@H]1C#N)C2 [Compound 4h, (S)-1-(2-(2-Methyl-4-(4-methylisoindolin-2-yl)-4-oxobutan-2-ylamino)acetyl)pyrrolidine-2-carbonitrile]		+ (Any test compound causing a dose-dependent change equal to or greater than 10% of the positive control (see formula below) was considered an enzyme inducer)	
